Activity calls are given as the source filed them.
Assays:
cells [1] = type: functional, cell-based
cells [2] = type: functional, cell-based; remark: listed apart in the source
cells [3] = type: functional, cell-based; remark: listed apart in the source
[4] = target: Nuclear receptor subfamily 0 group B member 1 (Homo sapiens, UniProt P51843); type: functional, cell-based;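 also: HEK293T cells transfected with SF-1 and DAX-1 plus StAR promoter luciferase reporter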
Beta-lactamase [5] = target: T1, Beta-lactamase (Pseudomonas aeruginosa, UniProt Q79MP6); test: IMP-1 metallo-beta-lactamase inhibitors, dose response, selectivity assay for VIM-2 inhibitor project, biochemical, epi-absorbance (AID 1920)
Beta-lactamase [6] = target: T1, Beta-lactamase; test: […] counterscreen for selective VIM-2 inhibitors: dose response biochemical high throughput screening assay to identify inhibitors of IMP-1 metallo-beta-lactamase.
Beta-lactamase [7] = target: Beta-lactamase (Salmonella choleraesuis (strain SC-B67), UniProt Q5J463); test: Epi-absorbance-based counterscreen for selective VIM-2 inhibitors: dose response biochemical high throughput screening assay to identify inhibitors of TEM-1 serine-beta-lactamase.
[8] = Luminescence Cell-Based Dose Confirmation HTS to Identify Inhibitors of Platelet Dense Granule Release. [Related pubchem assays: 1663 (Primary HTS), 1678 (Summary of Project)]; type: functional
[9] = target: Luciferin 4-monooxygenase (Photinus pyralis, UniProt P08659); test: firefly luciferase enzyme inhibitors, dose response, biochemical, luminescence (AID 1891)
cells [10] = type: functional, cell-based; conditions: HEK-CNG
Galanin receptor type 3 = Galanin receptor type 3 (Homo sapiens, UniProt O60755); test: Fluorescence-based cell-based primary high throughput dose response assay to identify antagonists of the Galanin Receptor 3 (GalR3).; type: functional
cells [11] = test: cells
[12] = target: T2, Beta-2 adrenergic receptor (Homo sapiens, UniProt P07550); test: Dose response for HTS for Beta-2AR agonists via FAP method from Powderset3.; type: functional
[13] = target: T2, Beta-2 adrenergic receptor; test: beta2AR agonists driving receptor internalization, dose response, cell-based, FAP fluorogen, flow cytometry, cherry pick 1 (AID 588763); type: functional
[14] = target: T3, Trace amine-associated receptor 1 (Homo sapiens, UniProt Q96RJ0); test: Counterscreen for antagonists of the human trace amine associated receptor 1 (hTAAR1): Fluorescence-based cell-based high throughput dose response assay to identify TAAR1 Agonists.; type: functional
T3 sequence (Q96RJ0 whole entry): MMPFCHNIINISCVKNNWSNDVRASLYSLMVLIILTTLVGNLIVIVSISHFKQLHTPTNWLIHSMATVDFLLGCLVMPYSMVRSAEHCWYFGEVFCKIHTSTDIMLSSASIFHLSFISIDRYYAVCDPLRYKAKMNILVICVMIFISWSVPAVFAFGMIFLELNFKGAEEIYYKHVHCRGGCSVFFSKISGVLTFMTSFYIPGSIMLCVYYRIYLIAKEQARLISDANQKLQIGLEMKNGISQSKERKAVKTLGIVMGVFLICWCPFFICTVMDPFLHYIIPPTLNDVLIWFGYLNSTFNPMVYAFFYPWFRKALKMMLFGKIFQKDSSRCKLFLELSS

H9c2 = test: cells; type: functional, cell-based; conditions: Rattus norvegicus, H9c2, Myocardium
[15] = Counterscreen for antagonists of the human trace amine associated receptor 1 (hTAAR1): Fluorescence-based cell-based high throughput dose response assay to identify nonselective Ga16 antagonists.; type: functional
[16] = Counterscreen for […] of the human trace amine associated receptor 1 (TAAR1): Fluorescence-based cell-based high throughput dose response assay to identify nonselective Ga16 agonists.; type: functional
[17] = target: T3, Trace amine-associated receptor 1; test: Fluorescence-based cell-based high throughput dose response assay to identify antagonists of the human trace amine associated receptor 1 (TAAR1).; type: functional
Beta-galactosidase = Beta-galactosidase (Escherichia coli, UniProt Q8VNN2); test: Dose response counterscreen for EBI2 assay utilizing the enzyme, b-galactosidase.; type: functional
[18] = target: T4, Oxysterols receptor LXR-beta (Homo sapiens, UniProt P55055); type: functional, cell-based;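 also: agonist activity at LXR measured by a cell-based luminescence readout across a dose range, run as a counterscreen for daf-12 agonists; HEK293 cells with Gal4-LXR fusion and GAL4-driven luciferase reporter; potency for activation of Gal4-LXR reporter so compounds are agonists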
T4 sequence (P55055 whole entry): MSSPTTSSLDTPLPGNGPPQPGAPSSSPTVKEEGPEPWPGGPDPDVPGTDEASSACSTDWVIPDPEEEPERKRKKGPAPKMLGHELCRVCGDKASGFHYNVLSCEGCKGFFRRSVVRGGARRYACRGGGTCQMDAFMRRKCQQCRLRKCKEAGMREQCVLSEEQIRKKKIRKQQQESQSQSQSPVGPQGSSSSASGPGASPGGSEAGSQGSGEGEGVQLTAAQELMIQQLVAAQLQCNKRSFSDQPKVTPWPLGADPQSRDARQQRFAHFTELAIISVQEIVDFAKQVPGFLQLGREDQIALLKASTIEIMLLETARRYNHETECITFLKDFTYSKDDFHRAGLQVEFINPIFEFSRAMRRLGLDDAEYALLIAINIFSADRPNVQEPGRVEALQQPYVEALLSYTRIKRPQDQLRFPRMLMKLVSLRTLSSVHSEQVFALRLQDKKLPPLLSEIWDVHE

Caspase-3 = target: T5, Caspase-3 (Homo sapiens, UniProt P42574); test: Dose-response confirmation of uHTS inhibitor hits of Sentrin-Specific Protease 8 in a Caspase-3 Fluorescence assay.; type: functional
T5 sequence (P42574 whole entry): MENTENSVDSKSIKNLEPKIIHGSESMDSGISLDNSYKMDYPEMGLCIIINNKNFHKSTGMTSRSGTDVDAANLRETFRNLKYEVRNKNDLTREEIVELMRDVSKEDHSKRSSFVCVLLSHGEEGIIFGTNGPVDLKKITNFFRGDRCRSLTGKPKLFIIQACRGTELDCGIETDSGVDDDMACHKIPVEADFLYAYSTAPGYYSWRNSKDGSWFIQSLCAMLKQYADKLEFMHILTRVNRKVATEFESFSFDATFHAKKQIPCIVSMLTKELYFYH

[19] = target: T6, Sentrin-specific protease 8 (Homo sapiens, UniProt Q96LD8); type: functional
T6 sequence (Q96LD8 whole entry): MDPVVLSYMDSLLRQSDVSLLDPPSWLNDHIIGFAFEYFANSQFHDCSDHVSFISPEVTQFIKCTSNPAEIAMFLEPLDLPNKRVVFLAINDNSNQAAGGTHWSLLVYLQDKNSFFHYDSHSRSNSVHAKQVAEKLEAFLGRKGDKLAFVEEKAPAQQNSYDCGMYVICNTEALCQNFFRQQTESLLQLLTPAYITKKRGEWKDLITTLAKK

[20] = target: T6, Sentrin-specific protease 8; type: functional; remark: listed apart in the source
[21] = target: 1-phosphatidylinositol 4,5-bisphosphate phosphodiesterase gamma-1 (Homo sapiens, UniProt P19174); test: Counterscreen for inhibitors of phospholipase C isozymes (PLC-B3): Fluorescence-based biochemical high throughput dose response assay to identify inhibitors of phospholipase C isozymes (PLC-gamma1).
[22] = target: 1-phosphatidylinositol 4,5-bisphosphate phosphodiesterase beta-3 (Homo sapiens, UniProt Q01970); test: Fluorescence-based biochemical high throughput dose response assay to identify inhibitors of phospholipase C isozymes (PLC-B3).
[23] = target: Latent membrane protein 1 (Human herpesvirus 4 (strain B95-8), UniProt P03230); test: TES1-eGFP NF-kB reporter inhibition versus Tet-On dsRED, dose response, selectivity assay for LMP1 NF-kB inhibitor project, imaging, HEK293T, dual-color eGFP/dsRED, cherry-picks (AID 588398); type: functional, cell-based
[24] = target: Botulinum neurotoxin type F (Clostridium botulinum, UniProt P30996); test: High-throughput multiplex microsphere dose response for inhibitors of toxin protease, specifically Botulinum neurotoxin light chain F protease, compounds from Cherry Pick 02.; type: functional; conditions: read-out: EC50_MICROM
cells [25] = conditions: HEK293
Protein skinhead-1 = target: T7, Protein skinhead-1 (Caenorhabditis elegans, UniProt P34707); type: functional
T7 sequence (P34707 whole entry): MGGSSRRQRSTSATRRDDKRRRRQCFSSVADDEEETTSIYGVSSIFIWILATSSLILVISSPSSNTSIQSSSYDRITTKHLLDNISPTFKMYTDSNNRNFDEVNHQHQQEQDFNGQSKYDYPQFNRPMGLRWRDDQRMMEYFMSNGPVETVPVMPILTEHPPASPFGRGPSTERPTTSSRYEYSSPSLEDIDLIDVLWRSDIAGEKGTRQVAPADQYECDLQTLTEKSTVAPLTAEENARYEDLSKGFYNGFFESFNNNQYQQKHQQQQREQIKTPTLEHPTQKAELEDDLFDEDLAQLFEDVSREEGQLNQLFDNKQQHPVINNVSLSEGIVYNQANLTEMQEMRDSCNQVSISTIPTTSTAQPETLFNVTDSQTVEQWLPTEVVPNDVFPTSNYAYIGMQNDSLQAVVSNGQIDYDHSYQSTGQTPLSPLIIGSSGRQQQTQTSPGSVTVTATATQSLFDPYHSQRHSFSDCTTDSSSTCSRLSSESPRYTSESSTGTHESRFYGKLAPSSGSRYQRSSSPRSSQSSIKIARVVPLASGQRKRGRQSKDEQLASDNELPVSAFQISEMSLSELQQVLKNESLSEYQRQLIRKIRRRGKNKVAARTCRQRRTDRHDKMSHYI

[26] = target: T2, Beta-2 adrenergic receptor; test: Dose response for HTS for Beta-2AR agonists via FAP method from Powderset2.; type: functional
[27] = target: Monoacylglycerol lipase ABHD6 (Mus musculus, UniProt Q8R2Y0); test: Late stage assay provider results from the probe development effort to identify inhibitors of diacylglycerol lipase, beta (DAGLb): fluorescence-based dose-response biochemical gel-based competitive Activity-Based Protein Profiling (ABPP) inhibition of antitarget ABHD6 in vitro, set 2.; type: functional
[28] = target: T8, Diacylglycerol lipase-beta (Mus musculus, UniProt Q91WC9); test: Late stage assay provider results from the probe development effort to identify inhibitors of diacylglycerol lipase, beta (DAGLb): LCMS-based biochemical dose response assay.; type: functional
[29] = target: T8, Diacylglycerol lipase-beta; test: Late stage assay provider results from the probe development effort to identify inhibitors of diacylglycerol lipase, beta (DAGLb): fluorescence-based dose-response biochemical gel-based competitive Activity-Based Protein Profiling (ABPP) inhibition of DAGLb in vitro.; type: functional
Vero = test: Vero cell toxicity, dose response, cytotoxicity control, plate reader, cherry-pick samples (AID 687020); type: functional, cell-based; conditions: Chlorocebus sabaeus
[30] = target: Metabotropic glutamate receptor 3 (Rattus norvegicus, UniProt P31422); test: mGlu3 NAM potency via calcium readout, dose response, mGlu3 NAM project, TREx293 cells, Galpha15, calcium flux (AID 651840); type: functional
[31] = A Cell-Based Confirmatory Screen for Compounds that Inhibit VEEV, TC-83 (3).; type: functional
[32] = HepG2 cell cytotoxicity, dose response, cytotoxicity control, cherry-picks, set 5 (AID 1053118); type: functional, cell-based
[33] = HEK293 cell cytotoxicity, dose response, cytotoxicity control, cherry-picks, set 5 (AID 1053117); type: functional, cell-based
[34] = target: Potassium channel subfamily K member 9 (Homo sapiens, UniProt Q9NPC2); test: TASK3 (KCNK9) channel inhibitors, thallium flux, SAR follow-up, selectivity assay for TASK1 inhibitor project, cell-based, FluxOR thallium flux, concentration-response (AID 652211); type: functional;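 also: potency is for inhibitors of the channel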

T2 sequence (P07550 whole entry): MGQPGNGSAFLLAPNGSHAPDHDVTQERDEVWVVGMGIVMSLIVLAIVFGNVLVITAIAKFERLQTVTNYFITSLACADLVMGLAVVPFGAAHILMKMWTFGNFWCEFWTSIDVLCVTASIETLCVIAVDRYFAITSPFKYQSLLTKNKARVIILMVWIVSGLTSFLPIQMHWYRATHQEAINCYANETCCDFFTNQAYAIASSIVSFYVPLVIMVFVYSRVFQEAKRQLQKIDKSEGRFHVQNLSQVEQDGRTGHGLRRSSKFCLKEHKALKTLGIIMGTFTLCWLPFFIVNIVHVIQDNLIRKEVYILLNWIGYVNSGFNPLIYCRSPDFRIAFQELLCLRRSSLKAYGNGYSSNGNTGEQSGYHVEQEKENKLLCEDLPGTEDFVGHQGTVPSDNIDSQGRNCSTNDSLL
T8 sequence (Q91WC9 whole entry): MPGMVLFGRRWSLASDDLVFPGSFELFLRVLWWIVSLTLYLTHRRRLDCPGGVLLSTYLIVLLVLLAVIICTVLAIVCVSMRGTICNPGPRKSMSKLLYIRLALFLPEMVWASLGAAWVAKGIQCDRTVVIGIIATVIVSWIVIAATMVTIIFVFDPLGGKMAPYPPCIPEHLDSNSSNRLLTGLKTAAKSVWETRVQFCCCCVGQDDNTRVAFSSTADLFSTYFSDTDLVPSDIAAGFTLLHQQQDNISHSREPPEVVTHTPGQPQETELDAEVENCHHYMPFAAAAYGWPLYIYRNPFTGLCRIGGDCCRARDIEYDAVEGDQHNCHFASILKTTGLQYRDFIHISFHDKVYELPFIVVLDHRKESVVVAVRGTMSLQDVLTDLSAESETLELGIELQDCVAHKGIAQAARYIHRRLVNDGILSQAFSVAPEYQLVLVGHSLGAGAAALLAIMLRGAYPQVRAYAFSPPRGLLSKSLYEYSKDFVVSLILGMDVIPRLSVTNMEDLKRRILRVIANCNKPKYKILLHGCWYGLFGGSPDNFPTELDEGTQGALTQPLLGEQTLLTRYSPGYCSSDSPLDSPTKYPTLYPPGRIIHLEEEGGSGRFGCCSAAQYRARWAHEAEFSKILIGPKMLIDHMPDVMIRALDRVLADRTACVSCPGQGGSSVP
T1 sequence (Q79MP6 whole entry): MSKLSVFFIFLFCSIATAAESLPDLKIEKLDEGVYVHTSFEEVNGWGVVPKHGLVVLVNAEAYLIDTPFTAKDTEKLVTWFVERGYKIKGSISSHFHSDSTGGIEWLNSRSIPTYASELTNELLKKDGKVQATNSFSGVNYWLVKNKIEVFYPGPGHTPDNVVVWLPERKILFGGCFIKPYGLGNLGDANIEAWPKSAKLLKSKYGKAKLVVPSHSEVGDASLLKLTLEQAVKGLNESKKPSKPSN
Chain of Galanin receptor type 3 (O60755 whole entry): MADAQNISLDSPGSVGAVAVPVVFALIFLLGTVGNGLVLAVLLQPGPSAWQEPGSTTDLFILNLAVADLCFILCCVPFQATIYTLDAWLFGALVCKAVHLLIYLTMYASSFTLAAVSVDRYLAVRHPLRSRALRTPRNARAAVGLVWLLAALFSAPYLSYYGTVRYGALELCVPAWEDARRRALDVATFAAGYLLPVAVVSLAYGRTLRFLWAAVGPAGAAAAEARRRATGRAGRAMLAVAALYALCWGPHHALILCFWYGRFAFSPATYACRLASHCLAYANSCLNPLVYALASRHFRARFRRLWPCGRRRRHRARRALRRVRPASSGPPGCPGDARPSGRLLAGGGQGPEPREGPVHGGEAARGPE
Chain of Metabotropic glutamate receptor 3 (P31422 whole entry): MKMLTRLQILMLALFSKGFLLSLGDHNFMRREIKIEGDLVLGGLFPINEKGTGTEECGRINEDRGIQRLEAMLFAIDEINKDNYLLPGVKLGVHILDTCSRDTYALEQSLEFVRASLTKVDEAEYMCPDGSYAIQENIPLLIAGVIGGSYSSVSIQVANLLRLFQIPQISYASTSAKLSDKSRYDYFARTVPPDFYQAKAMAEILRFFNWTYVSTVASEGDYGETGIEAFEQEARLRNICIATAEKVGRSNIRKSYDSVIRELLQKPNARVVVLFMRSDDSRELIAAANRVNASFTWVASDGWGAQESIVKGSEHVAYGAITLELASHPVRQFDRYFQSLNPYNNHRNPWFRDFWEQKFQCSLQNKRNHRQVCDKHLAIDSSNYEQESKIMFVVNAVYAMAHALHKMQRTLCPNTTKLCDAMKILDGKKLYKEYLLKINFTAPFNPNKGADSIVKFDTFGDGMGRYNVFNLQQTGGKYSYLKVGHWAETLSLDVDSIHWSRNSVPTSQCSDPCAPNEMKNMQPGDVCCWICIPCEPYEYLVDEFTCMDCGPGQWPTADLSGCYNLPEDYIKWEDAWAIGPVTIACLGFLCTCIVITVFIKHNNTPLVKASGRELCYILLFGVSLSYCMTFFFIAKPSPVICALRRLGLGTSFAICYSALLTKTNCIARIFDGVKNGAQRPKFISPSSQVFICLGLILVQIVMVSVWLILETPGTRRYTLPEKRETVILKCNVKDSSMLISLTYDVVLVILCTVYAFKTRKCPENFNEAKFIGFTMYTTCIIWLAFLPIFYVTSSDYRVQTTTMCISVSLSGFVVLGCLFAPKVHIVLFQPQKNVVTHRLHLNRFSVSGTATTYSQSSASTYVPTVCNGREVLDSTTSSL
Chain of 1-phosphatidylinositol 4,5-bisphosphate phosphodiesterase beta-3 (Q01970 whole entry): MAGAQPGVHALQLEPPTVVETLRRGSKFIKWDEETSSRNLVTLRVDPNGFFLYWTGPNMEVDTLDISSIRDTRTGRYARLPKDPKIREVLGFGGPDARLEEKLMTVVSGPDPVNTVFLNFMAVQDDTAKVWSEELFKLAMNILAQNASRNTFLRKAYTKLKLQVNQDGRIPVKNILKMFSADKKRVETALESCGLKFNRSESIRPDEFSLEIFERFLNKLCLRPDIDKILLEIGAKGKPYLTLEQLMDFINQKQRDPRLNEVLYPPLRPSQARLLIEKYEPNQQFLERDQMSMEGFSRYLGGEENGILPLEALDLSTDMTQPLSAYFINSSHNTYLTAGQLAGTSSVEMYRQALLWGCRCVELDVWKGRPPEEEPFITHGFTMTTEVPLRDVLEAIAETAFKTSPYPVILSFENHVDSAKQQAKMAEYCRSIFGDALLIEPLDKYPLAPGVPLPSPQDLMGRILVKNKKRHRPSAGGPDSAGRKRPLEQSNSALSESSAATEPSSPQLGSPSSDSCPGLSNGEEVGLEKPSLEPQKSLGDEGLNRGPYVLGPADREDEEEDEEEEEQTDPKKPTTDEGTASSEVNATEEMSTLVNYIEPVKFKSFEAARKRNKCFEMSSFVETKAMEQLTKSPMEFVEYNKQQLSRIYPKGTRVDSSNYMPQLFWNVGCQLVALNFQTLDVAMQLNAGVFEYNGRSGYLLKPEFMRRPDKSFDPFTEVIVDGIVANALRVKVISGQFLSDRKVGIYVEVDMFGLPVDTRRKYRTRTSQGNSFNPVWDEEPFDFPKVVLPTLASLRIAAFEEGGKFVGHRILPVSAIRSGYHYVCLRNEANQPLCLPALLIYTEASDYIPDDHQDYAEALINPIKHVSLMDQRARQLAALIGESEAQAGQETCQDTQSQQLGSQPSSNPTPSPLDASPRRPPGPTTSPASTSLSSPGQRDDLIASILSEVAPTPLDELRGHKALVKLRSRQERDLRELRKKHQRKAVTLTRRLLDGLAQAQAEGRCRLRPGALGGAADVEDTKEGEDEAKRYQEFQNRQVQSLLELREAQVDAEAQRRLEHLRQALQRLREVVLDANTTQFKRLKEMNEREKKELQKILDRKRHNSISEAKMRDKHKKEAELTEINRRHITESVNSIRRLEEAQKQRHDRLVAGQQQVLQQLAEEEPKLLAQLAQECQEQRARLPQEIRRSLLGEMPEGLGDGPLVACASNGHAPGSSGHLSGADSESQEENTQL
Chain of Botulinum neurotoxin type F (P30996 1-436 limits assumed): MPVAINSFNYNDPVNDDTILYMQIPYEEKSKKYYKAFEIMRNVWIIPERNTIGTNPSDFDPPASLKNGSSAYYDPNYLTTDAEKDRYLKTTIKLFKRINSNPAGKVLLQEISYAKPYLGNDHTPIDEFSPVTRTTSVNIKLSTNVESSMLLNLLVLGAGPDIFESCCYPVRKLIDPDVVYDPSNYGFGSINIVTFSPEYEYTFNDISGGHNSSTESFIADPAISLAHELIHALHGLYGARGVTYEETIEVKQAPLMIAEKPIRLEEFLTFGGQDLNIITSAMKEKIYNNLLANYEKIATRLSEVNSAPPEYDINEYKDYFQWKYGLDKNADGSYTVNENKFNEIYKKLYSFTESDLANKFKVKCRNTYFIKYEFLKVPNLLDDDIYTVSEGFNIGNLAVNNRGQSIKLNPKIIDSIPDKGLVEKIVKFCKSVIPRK
Chain of Beta-lactamase (Salmonella choleraesuis (strain SC-B67), UniProt Q5J463) (Q5J463 whole entry): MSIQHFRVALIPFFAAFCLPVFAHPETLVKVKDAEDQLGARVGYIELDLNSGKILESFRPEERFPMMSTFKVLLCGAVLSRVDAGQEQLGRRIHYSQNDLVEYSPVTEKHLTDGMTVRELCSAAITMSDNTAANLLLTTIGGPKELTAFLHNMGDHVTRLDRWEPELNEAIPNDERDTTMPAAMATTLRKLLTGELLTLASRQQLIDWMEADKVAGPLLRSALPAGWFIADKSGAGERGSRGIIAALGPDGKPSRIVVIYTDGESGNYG
Chain of Nuclear receptor subfamily 0 group B member 1 (P51843 whole entry): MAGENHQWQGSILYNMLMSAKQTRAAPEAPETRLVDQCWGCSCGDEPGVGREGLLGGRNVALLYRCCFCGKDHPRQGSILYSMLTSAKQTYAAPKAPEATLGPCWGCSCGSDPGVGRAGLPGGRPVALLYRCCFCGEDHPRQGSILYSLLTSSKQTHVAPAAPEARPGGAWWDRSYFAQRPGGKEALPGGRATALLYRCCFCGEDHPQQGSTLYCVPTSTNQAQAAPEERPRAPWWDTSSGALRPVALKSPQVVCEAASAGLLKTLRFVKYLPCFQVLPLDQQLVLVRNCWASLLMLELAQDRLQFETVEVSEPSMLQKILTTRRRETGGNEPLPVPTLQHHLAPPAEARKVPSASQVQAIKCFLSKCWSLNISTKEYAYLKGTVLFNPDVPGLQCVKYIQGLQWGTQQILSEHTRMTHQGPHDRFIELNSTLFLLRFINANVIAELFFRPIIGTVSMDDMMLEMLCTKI

## Cc1cc(C)c2nc(N3CCN(C(=O)c4ccco4)CC3)sc2c1
Cells [1]
  EC50: 55.3 µM (active)
Cells [2]
  EC50: > 350 µM (not active)
Cells [3]
  IC50: > 67.5 µM (inactive)
[4]
  IC50: > 67.5 µM (inactive)

## O=C(CSc1nnc(NC(=O)c2ccccc2[N+](=O)[O-])s1)NCc1ccco1
Beta-lactamase [5]
  IC50: > 59.6 µM (inactive)
Beta-lactamase [6]
  IC50: > 59.6 µM (inactive)
Beta-lactamase [7]
  IC50: > 59.6 µM (inactive)

## CC1CC(=O)NN=C1c1ccc(N(C)C)c([N+](=O)[O-])c1 (stereo unspecified)
[8]
  EC50: 0.149 µM (active)
[9]
  EC50: > 112 µM (not active)
Cells [10]
  EC50: > 29.9 µM (inactive)
Galanin receptor type 3
  IC50: 1.72 µM (active)

## C=CCc1c(O)c(CC)cc2c(C)cc(=O)oc12
Cells [11]
  AC50: 0.903 µM (active)

## C=CCn1c(CCNC(=O)c2cccs2)nnc1SCC(=O)c1ccc(Cl)cc1
[12]
  EC50: 0.00153 µM (active)
[13]
  EC50: 0.167 µM (active)

## CN1C(=O)CSc2ccc(NC(=O)Nc3ccccn3)cc21
[14]
  EC50: > 29.9 µM (inactive)
H9c2
  IC50: 49 µM (inactive)
[15]
  IC50: > 29.9 µM (inactive)
[16]
  EC50: > 29.9 µM (inactive)
[17]
  IC50: 5.8 µM (active)

## COc1ccc(NC(=O)c2ccc(OC(=S)N(C)c3ccc(OC)cc3)cc2)cc1
Beta-galactosidase
  IC50: > 80 µM (inactive)

## O=C(/C=C/c1ccccc1)N1CCC(c2ccccc2)C1 (stereo unspecified)
[18]
  EC50: > 67.5 µM (inactive)

## COc1ccc(Cc2nnc(SCC(=O)N3CCc4ccccc4C3)o2)cc1
Caspase-3
  IC50: 48.1 µM (active)
[19]
  IC50: 72.5 µM (inactive)
[20]
  IC50: 10.3 µM (active)

## Cc1c(N2C(=O)c3cccc4cccc(c34)C2=O)c(=O)n(-c2ccccc2)n1C
[21]
  IC50: > 122 µM (inactive)
[22]
  IC50: > 122 µM (inactive)

## COc1ccc(C(=O)OCC(=O)c2c[nH]c3ccccc23)cc1OC
[23]
  AC50: 164 µM (active)
[24]
  EC50: > 20 µM (inactive)

## Cc1cc2cc(CNC(=O)c3ccco3)ccc2n1C
Cells [25]
  AC50: > 52 µM (inactive)
Protein skinhead-1
  IC50: 73.3 µM (inactive)

## CN(CC(=O)N1CCN(c2ccccn2)CC1)S(=O)(=O)c1ccc(Cl)cc1
[26]
  EC50: 0.357 µM (active)
[13]
  EC50: 0.0396 µM (active)

## COc1ccccc1-c1ccc(-c2cn(C(=O)N3CCCCC3Cc3ccccc3)nn2)cc1 (stereo unspecified)
[27]
  IC50: 0.001 µM (active)
[28]
  IC50: 0.1 µM (active)
[29]
  IC50: 0.056 µM (active)

## O=C(Nc1ccc2c(c1)OCO2)c1cc(C2CCCCN2C(=O)OCCF)on1 (stereo unspecified)
Vero
  AC50: 31.8 µM (active)

## COc1ccc(C#Cc2ccc(C(=O)N3CC4CCC(=O)C4C3)cc2)cc1 (stereo unspecified)
[30]
  IC50: 2.05 µM

## CN(C(=O)Cc1cccs1)c1nc2c(s1)CCCC2
[31]
  IC50: 2.92 µM (active)

## CO[C@H]1CN(C)C(=O)c2ccc(NC(=O)Nc3cc(Cl)cc(Cl)c3)cc2OC[C@H](C)NC[C@@H]1C
[32]
  AC50: 30.9 µM (active)
[33]
  AC50: 41.1 µM (active)

## COc1ccccc1C(=O)Nc1cccc(NC(=O)c2ccccc2)c1
[34]
  IC50: 1.74 µM (active)

— ChEMBL document CHEMBL1201862, “PubChem BioAssay data set” (2004)
